Laboratory results: ChEMBL document CHEMBL5528023, “Discovery of a CB2 and 5-HT1A receptor dual agonist for the treatment of depression and anxiety” (Eur J Med Chem, 2024)
Calls of active or inactive are those of the source. No cut-off for these calls is given here.

Key:
[1] = Half life in ICR mouse at 25 mg/kg, po measured upto 8 hrs by LC-MS/MS analysis; format: ADME, organism-based; settings: in vivo
Mus musculus [2] = test: Antidepressant activity in C57BL/6J mouse assessed as reduction in immobility time at 3 to 10 mg/kg, ip administered for 12 days and measured after 15 mins by forced swim test; format: functional, organism-based; settings: dose 3-10 mg/kg, time 17295.0 min
[3] = molecular target: T1, 5-hydroxytryptamine receptor 1A (Homo sapiens, UniProt P08908); test: Agonist activity at human 5HT1A receptor expressed in HEK293 cells assessed as forskolin-stimulated cAMP formation preincubated with compound for 10 mins followed by forskolin induction and measured after 30 mins by HTRF analysis; format: functional, cell-based
T1 sequence (P08908 whole entry): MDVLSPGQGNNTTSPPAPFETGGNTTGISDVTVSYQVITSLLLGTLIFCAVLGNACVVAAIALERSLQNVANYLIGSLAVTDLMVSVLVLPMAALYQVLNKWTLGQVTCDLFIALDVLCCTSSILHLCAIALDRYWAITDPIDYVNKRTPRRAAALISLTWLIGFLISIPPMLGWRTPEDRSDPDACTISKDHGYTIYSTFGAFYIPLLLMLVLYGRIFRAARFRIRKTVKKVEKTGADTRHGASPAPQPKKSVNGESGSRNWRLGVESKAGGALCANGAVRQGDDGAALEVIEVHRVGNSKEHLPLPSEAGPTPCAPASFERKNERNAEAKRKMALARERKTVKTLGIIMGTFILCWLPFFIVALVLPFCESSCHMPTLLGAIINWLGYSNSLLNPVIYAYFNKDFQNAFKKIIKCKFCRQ

Cannabinoid receptor 1 [4] = molecular target: T2, Cannabinoid receptor 1 (Homo sapiens, UniProt P21554); test: Antagonist activity at human CB1 receptor expressed in CHO cells assessed as inhibition of forskolin-stimulated cAMP formation preincubated with compound for 10 mins followed by forskolin induction and measured after 30 mins by HTRF analysis; format: functional, cell-based
Mus musculus [5] = test: Antidepressant activity in C57BL/6J mouse assessed as reduction in immobility time at 3 to 10 mg/kg, ip administered for 12 days by forced swim test; format: functional, organism-based; settings: dose 3-10 mg/kg, time 12.0 day
Mus musculus [6] = test: Induction of spontaneous locomotor activity in C57BL/6 mouse assessed as distance traveled at 10 mg/kg, ip measured at 1 hr; format: functional, organism-based
Mus musculus [7] = test: Anxiolytic activity against stress-induced hyperthermia in ip dosed ICR mouse assessed as reduction in basal core rectal temperature measured for 60 mins; format: functional, organism-based; settings: dose 3-10 mg/kg
[8] = Tmax in ICR mouse at 25 mg/kg, po measured upto 8 hrs by LC-MS/MS analysis; format: ADME, organism-based; settings: in vivo
Cannabinoid receptor 2 [9] = molecular target: T3, Cannabinoid receptor 2 (Homo sapiens, UniProt P34972); test: Agonist activity at human CB2 receptor expressed in CHO cells assessed as forskolin-stimulated cAMP formation preincubated with compound for 10 mins followed by forskolin induction and measured after 30 mins by HTRF analysis relative to control; format: functional, cell-based; settings: time 40.0 min
Cannabinoid receptor 2 [10] = molecular target: T3, Cannabinoid receptor 2; test: Agonist activity at human CB2 receptor expressed in CHO cells assessed as forskolin-stimulated cAMP formation preincubated with compound for 10 mins followed by forskolin induction and measured after 30 mins by HTRF analysis; format: functional, cell-based
Mus musculus [11] = test: Antidepressant activity in C57BL/6J mouse assessed as […] at 1 mg/kg, ip administered for 14 days by tail suspension test; format: functional, organism-based; settings: time 14.0 day
Mus musculus [12] = test: Anxiolytic activity against stress-induced hyperthermia in ip dosed ICR mouse assessed as reduction in delta temperature measured for 60 mins; format: functional, organism-based; settings: dose 1-10 mg/kg
Mus musculus [13] = test: Anxiolytic activity against stress-induced hyperthermia in ICR mouse assessed as reduction in basal core rectal temperature at 1 to 10 mg/kg, ip measured for 60 mins; format: functional, organism-based; settings: dose 1-10 mg/kg
Mus musculus [14] = test: Induction of spontaneous locomotor activity in C57BL/6 mouse at 1 mg/kg, ip measured at 1 hr; format: functional, organism-based
[15] = Toxicity in C57BL/6J mouse assessed as effect on body weight at 1 to 10 mg/kg, ip measured upto 10 days; format: organism-based; settings: in vivo, 240 h, dose 1-10 mg/kg, time < 10 day
Cannabinoid receptor 1 [16] = molecular target: T2, Cannabinoid receptor 1; test: Antagonist activity at human CB1 receptor expressed in CHO cells assessed as inhibition of forskolin-stimulated cAMP formation by measuring maximum inhibition preincubated with compound for 10 mins followed by forskolin induction and measured after 30 mins by HTRF analysis relative to control; format: functional, cell-based; settings: filed as antagonist, time 40.0 min
Mus musculus [17] = test: Induction of spontaneous locomotor activity in C57BL/6 mouse at 3 mg/kg, ip measured at 15 mins; format: functional, organism-based
Mus musculus [18] = test: Antidepressant activity in C57BL/6J mouse assessed as reduction in immobility time at 1 mg/kg, ip administered for 12 days by forced swim test; format: functional, organism-based; settings: time 12.0 day
[19] = Cmax in ICR mouse at 25 mg/kg, po measured upto 8 hrs by LC-MS/MS analysis; format: ADME, organism-based; settings: in vivo
Mus musculus [20] = test: Antidepressant activity in C57BL/6J mouse at 1 mg/kg, ip administered for 14 days by tail suspension test; format: functional, organism-based; settings: time 14.0 day
Mus musculus [21] = test: Induction of spontaneous locomotor activity in C57BL/6 mouse assessed as distance traveled at 1 to 10 mg/kg, ip administered once per day for 15 days and measured after 1 hr; format: functional, organism-based; settings: dose 1-10 mg/kg, time 361.0 hrs
[22] = molecular target: T4, 5-hydroxytryptamine receptor 1A (Homo sapiens) (UniProt P08908); test: Agonist activity at human 5HT1A receptor expressed in HEK293 cells assessed as forskolin-stimulated cAMP formation preincubated with compound for 10 mins followed by forskolin induction and measured after 30 mins by HTRF analysis relative to control; format: functional, cell-based; settings: filed as agonist, time 40.0 min
T4 sequence (whole entry): T1 sequence (P08908 whole entry)

[23] = Cmax in ICR mouse brain at 25 mg/kg, po measured upto 8 hrs by LC-MS/MS analysis; format: ADME, organism-based
[24] = AUClast in ICR mouse at 25 mg/kg, po measured upto 8 hrs by LC-MS/MS analysis; format: ADME, organism-based; settings: in vivo
Mus musculus [25] = test: Antidepressant activity in C57BL/6J mouse assessed as reduction in immobility time at 1 mg/kg, ip administered for 12 days and measured after 15 mins by forced swim test; format: functional, organism-based; settings: time 17295.0 min

T3 sequence (P34972 whole entry): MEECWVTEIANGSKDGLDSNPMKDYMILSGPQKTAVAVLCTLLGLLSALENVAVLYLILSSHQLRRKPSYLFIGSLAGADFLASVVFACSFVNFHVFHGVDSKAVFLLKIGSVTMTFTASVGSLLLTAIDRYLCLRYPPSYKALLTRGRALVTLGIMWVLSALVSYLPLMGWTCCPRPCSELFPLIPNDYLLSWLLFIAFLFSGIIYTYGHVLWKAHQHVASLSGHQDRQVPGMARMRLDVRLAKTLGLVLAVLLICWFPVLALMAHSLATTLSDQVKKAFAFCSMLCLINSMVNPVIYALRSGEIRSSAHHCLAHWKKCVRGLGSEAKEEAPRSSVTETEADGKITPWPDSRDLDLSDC
T2 sequence (P21554 whole entry): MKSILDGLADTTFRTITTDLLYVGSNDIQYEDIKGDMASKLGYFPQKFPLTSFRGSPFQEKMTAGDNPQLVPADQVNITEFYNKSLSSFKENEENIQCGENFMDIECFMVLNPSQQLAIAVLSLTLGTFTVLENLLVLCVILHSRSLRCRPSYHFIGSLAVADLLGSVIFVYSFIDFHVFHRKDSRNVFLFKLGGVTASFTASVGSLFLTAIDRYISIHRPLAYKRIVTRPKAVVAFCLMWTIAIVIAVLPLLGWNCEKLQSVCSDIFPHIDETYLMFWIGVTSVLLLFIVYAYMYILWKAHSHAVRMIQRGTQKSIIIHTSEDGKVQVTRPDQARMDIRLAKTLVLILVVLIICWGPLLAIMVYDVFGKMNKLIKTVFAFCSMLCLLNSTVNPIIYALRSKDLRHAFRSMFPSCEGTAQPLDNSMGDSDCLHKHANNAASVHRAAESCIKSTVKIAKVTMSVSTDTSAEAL

For C=C(C)[C@@H]1CCC(C)=C[C@H]1c1c(O)cc(C2(CCCC)CC2)c(C(N)=O)c1O, the half-life [1] was 2.5 h, the Activity (Mus musculus [2]) was “Active” and the EC50 [3] was 2.7 µM. The IC50 (Cannabinoid receptor 1 [4]) was 3.2 µM, the Activity (Mus musculus [5]) was “Active” and the Activity (Mus musculus [6]) was “inactive”. The Activity (Mus musculus [7]) was “Dose-Dependent Effect”, the Tmax [8] was 1.3 h and the Emax (Cannabinoid receptor 2 [9]) was 34.9%. The EC50 (Cannabinoid receptor 2 [10]) was 0.48 µM, the Activity (Mus musculus [11]) was “inactive” and the Activity (Mus musculus [12]) was “Dose-Dependent Effect”. The Activity (Mus musculus [13]) was “Active”, the Activity (Mus musculus [14]) was “Active” and the Activity [15] was “Non-Toxic”. For the same compound, the Imax (Cannabinoid receptor 1 [16]) was 93.8%, the Activity (Mus musculus [17]) was “Active” and the Activity (Mus musculus [18]) was “Active”. For the same compound, the Cmax [19] was 211 ng/mL, the Activity (Mus musculus [20]) was “Active” and the Activity (Mus musculus [21]) was “Active”. The Emax [22] was 101%, the Cmax [23] was 217 ng/g and the AUC(0-t) at 8 h [24] was 545 ng·h/mL. For the same compound, the Activity (Mus musculus [25]) was “Active”.
